Assay results: ChEMBL document CHEMBL5137014, “Insight on pyrimido[5,4-g]indolizine and pyrimido[4,5-c]pyrrolo[1,2-a]azepine systems as promising photosensitizers on malignant cells” (Eur J Med Chem, 2022)
Calls of active or inactive are those of the source. The rule behind the calls is not given here.

How the values were obtained:
[1] = Selectivity index, ratio of IC50 for dark toxicity against human MDA-MB-231 cells to IC50 for phototoxicity against human MDA-MB-231 cells irradiated with 2 J/cm^2 of light dose; assay type: cell-based; conditions: read-out: Ratio IC50
MDA-MB-231 [2] = test: Dark toxicity against human MDA-MB-231 cells assessed as cell viability after 72 hrs by MTT assay; assay type: functional, cell-based; conditions: MDA-MB-231, 72 h
MDA-MB-231 [3] = test: Phototoxicity against human MDA-MB-231 cells assessed as cell viability incubated for 1 hr followed by irradiated with 2 J/cm^2 of light dose measured after 72 hrs by MTT assay; assay type: functional, cell-based; conditions: MDA-MB-231, light or radiation study
DNA [4] = test: Induction of DNA damage in Escherichia coli pBR322 DNA assessed as supercoiled DNA irradiated with 15 J/cm^2 UV light dose relative to control; assay type: nucleic-acid assay
DNA [5] = test: Induction of DNA damage in Escherichia coli pBR322 DNA assessed as supercoiled DNA irradiated with 7.5 J/cm^2 UV light dose relative to control; assay type: nucleic-acid assay
DNA [6] = test: Induction of DNA damage in Escherichia coli pBR322 DNA assessed as open circular DNA irradiated with 7.5 J/cm^2 UV light dose relative to control; assay type: nucleic-acid assay
DNA [7] = test: Induction of DNA damage in Escherichia coli pBR322 DNA assessed as open circular DNA relative to control; assay type: nucleic-acid assay
DNA [8] = test: Induction of DNA damage in Escherichia coli pBR322 DNA assessed as supercoiled DNA relative to control; assay type: nucleic-acid assay
DNA [9] = test: Induction of DNA damage in Escherichia coli pBR322 DNA assessed as open circular DNA irradiated with 15 J/cm^2 UV light dose relative to control; assay type: nucleic-acid assay
[10] = Induction of superoxide anion generation irradiated with 560 nm LED light; assay type: functional
T-24 [11] = test: Phototoxicity against human T24 cells assessed as cell viability incubated for 1 hr followed by irradiated with 2 J/cm^2 of light dose measured after 24 hrs by resazurin assay; assay type: functional, cell-based; conditions: T-24, light or radiation study
MDA-MB-231 [12] = test: Induction of reactive oxygen species production in human MDA-MB-231 cells assessed as decrease in thiol formation incubated for 1 hr followed by irradiated with 2 J/cm^2 of light dose after 24 hrs by DTNB assay; assay type: functional, cell-based; conditions: time 25.0 hrs, TDE = time-dependent effect
MDA-MB-231 [13] = test: Induction of apoptosis in human MDA-MB-231 cells assessed as pyknotic nuclei at IC50 measured after 24 hrs by Hoechst staining based microscopic analysis; assay type: functional
T-24 [14] = test: Induction of apoptosis in human T24 cells assessed as apoptotic cells at IC50 followed by irradiated with 2 J/cm^2 of light dose after 24 hrs annexin-V-PI staining based flow cytometry; assay type: functional, cell-based
HCC1954 = test: Phototoxicity against human HCC1954 cells assessed as cell viability incubated for 1 hr followed by irradiated with 2 J/cm^2 of light dose measured after 24 hrs by resazurin assay; assay type: functional, cell-based; conditions: HCC1954, light or radiation study
MDA-MB-231 [15] = test: Induction of reactive oxygen species production in human MDA-MB-231 cells assessed as increase in hydrogen peroxide production incubated for 1 hr followed by irradiated with 2 J/cm^2 of light dose by CM-H2DCFDA dye based fluorescence assay; assay type: functional, cell-based
T-24 [16] = test: Induction of apoptosis in human T24 cells assessed as necrotic cells at IC50 followed by irradiated with 2 J/cm^2 of light dose after 24 hrs annexin-V-PI staining based flow cytometry; assay type: functional, cell-based
[17] = Induction of singlet oxygen in phosphate buffer assessed as RNO bleaching at pH 7.3 irradiated with 440 nm LED light by spectrophotometry; assay type: functional
MDA-MB-231 [18] = test: Induction of apoptosis in human MDA-MB-231 cells assessed as chromatin condensation and fragmentation at IC50 measured after 24 hrs by Hoechst staining based microscopic analysis; assay type: functional

SMILES	selectivity ratio [1]	IC50 (MDA-MB-231 [2]) [µM]	IC50 (MDA-MB-231 [3]) [µM]	further results
c1cc2n(c1)CCc1cnc(NC3CCCC3)nc1-2	1.1	0.91	0.86	
CC(C)OC(=O)c1ccc2n1CCc1cnc(NC3CCCCC3)nc1-2	> 4	> 50	12.5	Activity (DNA [4]): 36.6%; Activity (DNA [5]): 59.7%; Activity (DNA [6]): 40.3%; Activity (DNA [7]): 18.7%; Activity (DNA [8]): 81.3%; Activity (DNA [9]): 63.4%; Activity [10]: Active
CC(=O)Nc1ncc2c(n1)-c1ccc(C(=O)OC(C)C)n1CCC2	> 2.9	> 50	17.2	
CCOC(=O)c1ccc2n1CCCc1cnc(Nc3ccccc3)nc1-2	> 9.2	> 50	5.45	
CC(C)OC(=O)c1ccc2n1CCCc1cnc(Nc3ccccc3)nc1-2	> 3.5	> 50	14.3	
c1ccc(Nc2ncc3c(n2)-c2cccn2CC3)cc1	> 9	> 50	5.55	
CC(=O)Nc1ncc2c(n1)-c1ccc(C(=O)OC(C)C)n1CC2	> 3.8	> 50	13.1	
c1cc2n(c1)CCc1cnc(NC3CCCCC3)nc1-2	> 16.7	> 50	3	
CC(C)OC(=O)c1ccc2n1CCCc1cnc(N)nc1-2	1	5.87	5.76	
CCOC(=O)c1ccc2n1CCc1cnc(NC3CCCC3)nc1-2		> 50	> 50	
CCOC(=O)c1ccc2n1CCc1cnc(NC(C)=O)nc1-2	> 7	> 6.25	0.9	
CC(C)OC(=O)c1ccc2n1CCc1cnc(N)nc1-2	0.8	11.9	14.5	
Nc1ncc2c(n1)-c1cccn1CC2	> 7.3	> 50	6.81	
CC(C)OC(=O)c1ccc2n1CCCc1cnc(NC3CCCCC3)nc1-2	> 13.3	> 50	3.75	Activity (DNA [4]): 50.1%; Activity (DNA [5]): 50.5%; Activity (DNA [6]): 49.5%; Activity (DNA [7]): 38.5%; Activity (DNA [8]): 61.5%; Activity (DNA [9]): 49.9%; Activity [10]: Active
CC(C)OC(=O)c1ccc2n1CCc1cnc(NC3CCCC3)nc1-2	> 3.7	> 50	13.4	
CCOC(=O)c1ccc2n1CCCc1cnc(N)nc1-2		> 50	> 50	
CC(=O)Nc1ncc2c(n1)-c1cccn1CC2	> 3.4	> 50	14.8	
CCOC(=O)c1ccc2n1CCCc1cnc(NC(C)=O)nc1-2	19.1	27.9	1.46	
CC(C)OC(=O)c1ccc2n1CCCc1cnc(NC3CCCC3)nc1-2	> 8.7	> 50	5.76	
CCOC(=O)c1ccc2n1CCCc1cnc(NC3CCCC3)nc1-2	1.5	1.41	0.9	
CCOC(=O)c1ccc2n1CCc1cnc(NC3CCCCC3)nc1-2	2.1	1.74	0.82	Activity (DNA [4]): 83.5%; IC50 (T-24 [11]): 0.96 µM; Activity (MDA-MB-231 [12]): Tde; Activity (DNA [5]): 78.4%; Activity (MDA-MB-231 [13]): 86.2%; Activity (DNA [6]): 21.6%; Activity (DNA [7]): 16.6%; Activity (T-24 [14]): Active; IC50 (HCC1954): 0.9 µM; Activity (MDA-MB-231 [15]): Active; Activity (DNA [8]): 83.4%; Activity (DNA [9]): 16.5%; Activity (T-24 [16]): Active; Activity [17]: Active; Activity (MDA-MB-231 [18]): 83.4%; Activity [10]: Active
CCOC(=O)c1ccc2n1CCCc1cnc(NC3CCCCC3)nc1-2	12.1	5.44	0.45	Activity (DNA [4]): 74.7%; IC50 (T-24 [11]): 0.9 µM; Activity (MDA-MB-231 [12]): Tde; Activity (DNA [5]): 76.1%; Activity (MDA-MB-231 [13]): 61.5%; Activity (DNA [6]): 23.9%; Activity (DNA [7]): 13.8%; Activity (T-24 [14]): Active; IC50 (HCC1954): 1.5 µM; Activity (MDA-MB-231 [15]): Active; Activity (DNA [8]): 86.2%; Activity (DNA [9]): 25.3%; Activity (T-24 [16]): Active; Activity [17]: Active; Activity (MDA-MB-231 [18]): 81.3%; Activity [10]: Active
CC(C)OC(=O)c1ccc2n1CCc1cnc(Nc3ccccc3)nc1-2		> 50	> 50	
